Values joined by “and” are separate entries in the source; they are usually repeats but may differ in a detail not shown here. Identical values can stand only once. Like-named read-outs stand apart in the source and are kept apart here. Marks after values point to notes of the source that are not given here.
Tests used:
[1] = female, human, in vivo
clinical = settings: female, human, in vivo
[2] = for unconjugated form in serum: before enzymatic deconjugation, early time points of medium and high dose subjects; for Cmax / half-life / Tmax / Vd/F: female, human, serum, po; for CL/F: oral
[3] = cited from earlier work
[4] = mean ± S.D., N = 5; for Urinary excretion (total) during the first 24 h: after enzymatic deconjugation
Ishikawa cell line = settings: read-out: EC50, estrogenicity; Ishikawa cells; cited from earlier work
[5] = cited from earlier work; remark: listed apart in the source
[6] = in the stomach; cited from earlier work
[7] = rats, 100 mg/kg XN daily by oral gavage for 5 days; cited from earlier work
[8] = rats, cited from earlier work
[9] = 2 capsules/day, medium dose (2 capsules), mean ± S.D., N = 5
[10] = 2 capsules/day, T1/2, medium dose (2 capsules), mean ± S.D., N = 5
[11] = 4 capsules/day, high dose (4 capsules), mean ± S.D., N = 5
[12] = 4 capsules/day, T1/2, high dose (4 capsules), mean ± S.D., N = 5
[13] = half-life, across all dosages of the hop extract
[14] = high dose (4 capsules), mean ± S.D., N = 5
[15] = low dose (1 capsule), mean ± S.D., N = 5
[16] = medium dose (2 capsules), mean ± S.D., N = 5

Which results are given for CC(C)=CCc1c(O)cc2c(c1O)C(=O)C[C@@H](c1ccc(O)cc1)O2 [6-PN, 6-prenylnaringenin]?
AUC0-24 ratios after normalization by dose [1]: 1: 1.2: 0.5; Vd/F (clinical; apparent volume of distribution): 887 to 1770 L; AUC(0-inf) (clinical; po, AUC0-inf): 69.2 ± 60 ng·h/mL; half-life (clinical; po, T1/2): 23.5 ± 6.9 h; Vd/F (clinical; po): 887 ± 581 L; half-life (clinical; po, half-life): 21 to 24 h

Which “unconjugated form in serum” value [2] does the source give for CC(C)=CCc1c(O)cc(O)c2c1O[C@H](c1ccc(O)cc1)CC2=O [8-PN, 8-prenylnaringenin] here?
Its value is “no free 8-PN was detected”.

What about the “AUC0-24 of a theoretical dose of 50 mg 8-PN in the hop extract” value ([2]; extrapolated assuming AUC linear with dose) of the same molecule?
Its value is 2520 h^.ng/mL.

And the Cmax [2, 9]?
The Cmax was 3.9 ± 2.6 ng/mL.

And the half-life [2, 10]?
Its half-life is > 24 h.

What about the Tmax [2, 9] of the same molecule?
Its Tmax is 7 ± 9.7 h.

And the Vd/F [2, 9]?
Its Vd/F is 186 ± 186 L.

What about the Cmax [2, 11] of the same molecule?
The Cmax was 6.7 ± 3.8 ng/mL.

What about the half-life [2, 12] of the same molecule?
The half-life was > 24 h.

And the Tmax [2, 11]?
The Tmax was 2.8 ± 4 h.

And the Vd/F [2, 11]?
Its Vd/F is 271 ± 216 L.

And the half-life [2, 13]?
The half-life was > 24 h.

And the CL/F [2, 14]?
Its CL/F is 13.7 ± 5.5 L/h.

What about the CL/F [2, 15] of the same molecule?
The CL/F was 11.1 ± 3.4 L/h.

And the “ratio of total serum concentrations 8-PN/IX” value ([2]; mean of the other 4 subjects, high dose)?
The value was 0.14.

And the “ratio of total serum concentrations 8-PN/IX” value ([2]; mean value, medium dose)?
Its value is 0.17.

What about the CL/F [2, 16] of the same molecule?
Its CL/F is 10.4 ± 8.1 L/h.

What about the “ratio of total serum concentrations 8-PN/IX” value ([2]; one subject with higher exposure, high dose, after enzymatic deconjugation) of the same molecule?
The value was 0.35.

What about the “ratio of total serum concentrations 8-PN/IX” value ([2]; one subject with higher exposure, medium dose) of the same molecule?
The value was 0.65.

And the “time of secondary peak due to enterohepatic recirculation” value ([3]; post dose, women)?
Its value is 5 to 8 h.

And the AUC0-24 ([3]; single oral dose of 50 mg 8-PN, women)?
The AUC0-24 was 453 h^.ng/mL.

What about the “share of dose recovered in feces within 48 h” value ([3]; single oral doses to women) of the same molecule?
The value was 21-24%.

What about the “Urinary excretion (total) during the first 24 h” value ([4]; high dose) of the same molecule?
Its value is 29.4 ± 22.9 nmol.

And the “Urinary excretion (% of dose) during the first 24 h” value ([4]; high dose)?
The value was 1.001±0.781%.

What about the “Urinary excretion (total) during the first 24 h” value ([4]; low dose) of the same molecule?
The value was 5.1 ± 4.4 nmol.

What about the “Urinary excretion (% of dose) during the first 24 h” value ([4]; low dose) of the same molecule?
The value was 0.693±0.597%.

And the “Urinary excretion (total) during the first 24 h” value ([4]; medium dose)?
Its value is 21.3 ± 21.6 nmol.

What about the “Urinary excretion (% of dose) during the first 24 h” value ([4]; medium dose) of the same molecule?
The value was 1.449±1.467%.

And the EC50 (Ishikawa cell line)?
The EC50 was 13 nM.

With COc1cc(O)c(CC=C(C)C)c2c1C(=O)CC(c1ccc(O)cc1)O2 (centres unmarked) [IX, isoxanthohumol] as the molecule, how does the “unconjugated form in serum” value [2] read?
The value was “detected”.

And the Cmax [2, 9]?
Its Cmax is 19.1 ± 15.5 ng/mL.

And the half-life [2, 10]?
Its half-life is 24.8 ± 24.3 h.

And the Tmax [2, 9]?
Its Tmax is 3.2 ± 3.2 h.

And the Vd/F [2, 9]?
Its Vd/F is 99 ± 56 L.

And the Cmax [2, 11]?
The Cmax was 37.6 ± 17.6 ng/mL.

What about the half-life [2, 12] of the same molecule?
The half-life was 19.9 ± 8.7 h.

And the Tmax [2, 11]?
The Tmax was 4 ± 4.8 h.

What about the Vd/F [2, 11] of the same molecule?
The Vd/F was 182 ± 53 L.

What about the CL/F [2, 14] of the same molecule?
The CL/F was 7.3 ± 3.5 L/h.

And the CL/F [2, 15]?
The CL/F was 7.1 ± 4.2 L/h.

What about the CL/F [2, 16] of the same molecule?
Its CL/F is 5.7 ± 4.9 L/h.

What about the “Urinary excretion (total) during the first 24 h” value ([4]; high dose) of the same molecule?
The value was 172 ± 67.4 nmol.

And the “Urinary excretion (% of dose) during the first 24 h” value ([4]; high dose)?
Its value is 1.902±0.746%.

And the “Urinary excretion (total) during the first 24 h” value ([4]; low dose)?
The value was 29.8 ± 32.3 nmol.

What about the “Urinary excretion (% of dose) during the first 24 h” value ([4]; low dose) of the same molecule?
The value was 1.318±1.428%.

What about the “Urinary excretion (total) during the first 24 h” value ([4]; medium dose) of the same molecule?
The value was 89.5 ± 54.5 nmol.

And the “Urinary excretion (% of dose) during the first 24 h” value ([4]; medium dose)?
Its value is 1.98±1.205%.

Which “unconjugated form in serum” value [2] does the source give for COc1cc(O)c(CC=C(C)C)c(O)c1C(=O)/C=C/c1ccc(O)cc1 [XN, xanthohumol] here?
Its value is “detected”.

What about the Cmax [2, 9] of the same molecule?
Its Cmax is 22.2 ± 12.1 ng/mL.

And the half-life [2, 10]?
Its half-life is 9.5 ± 2.2 h.

And the Tmax [2, 9]?
Its Tmax is 3.6 ± 2.6 h.

What about the Vd/F [2, 9] of the same molecule?
The Vd/F was 3770 ± 1390 L.

And the Cmax [2, 11]?
The Cmax was 27.6 ± 8.9 ng/mL.

What about the half-life [2, 12] of the same molecule?
The half-life was 20.7 ± 12.7 h.

And the Tmax [2, 11]?
Its Tmax is 1.8 ± 1.8 h.

What about the Vd/F [2, 11] of the same molecule?
The Vd/F was 7880 ± 1810 L.

And the half-life [2, 13]?
The half-life was ~19 h.

And the CL/F [2, 14]?
The CL/F was 329 L/h and 329 ± 163 L/h.

What about the CL/F [2, 15] of the same molecule?
The CL/F was 657 L/h and 657 ± 670 L/h.

And the CL/F [2, 16]?
Its CL/F is 278 L/h and 278 ± 87 L/h.

What about the “Urinary excretion (total) during the first 24 h” value ([4]; high dose) of the same molecule?
The value was 138 ± 113 nmol.

And the “Urinary excretion (% of dose) during the first 24 h” value ([4]; high dose)?
The value was 0.058±0.047%.

And the “Urinary excretion (total) during the first 24 h” value ([4]; low dose)?
The value was 23.9 ± 17.9^a nmol.

And the “Urinary excretion (% of dose) during the first 24 h” value ([4]; low dose)?
The value was 0.040±0.030%.

And the “Urinary excretion (total) during the first 24 h” value ([4]; medium dose)?
Its value is 37.0 ± 26.3 nmol.

What about the “Urinary excretion (% of dose) during the first 24 h” value ([4]; medium dose) of the same molecule?
The value was 0.031±0.022%.

And the elimination half-life ([5]; humans, oral pure XN)?
The elimination half-life was 18 to 20 h.

And the “time of secondary peak due to enterohepatic recirculation” value ([5]; men and women)?
Its value is 4 h.

What about the “half-life of conversion to IX by acid-catalyzed cyclization” value [6] of the same molecule?
Its value is 0.617 h.

And the tissue distribution [7]?
Its tissue distribution is “highest concentrations in the small intestine, colon and the liver”.

What about the “share recovered in the feces in the first 48 h” value ([8]; oral administration) of the same molecule?
The value was 89%.

And the elimination half-life ([8]; oral pure XN)?
Its elimination half-life is 32 h.

Reference: paper PMC4265473 (Molecular nutrition & food research, 2014)
